Biological target: VR (Homo sapiens, UniProt Q8NER1)
Assay: not given
Conditions: binds to VR with no more than moderate affinity; cited from earlier work

Sequence of VR (Q8NER1 whole entry): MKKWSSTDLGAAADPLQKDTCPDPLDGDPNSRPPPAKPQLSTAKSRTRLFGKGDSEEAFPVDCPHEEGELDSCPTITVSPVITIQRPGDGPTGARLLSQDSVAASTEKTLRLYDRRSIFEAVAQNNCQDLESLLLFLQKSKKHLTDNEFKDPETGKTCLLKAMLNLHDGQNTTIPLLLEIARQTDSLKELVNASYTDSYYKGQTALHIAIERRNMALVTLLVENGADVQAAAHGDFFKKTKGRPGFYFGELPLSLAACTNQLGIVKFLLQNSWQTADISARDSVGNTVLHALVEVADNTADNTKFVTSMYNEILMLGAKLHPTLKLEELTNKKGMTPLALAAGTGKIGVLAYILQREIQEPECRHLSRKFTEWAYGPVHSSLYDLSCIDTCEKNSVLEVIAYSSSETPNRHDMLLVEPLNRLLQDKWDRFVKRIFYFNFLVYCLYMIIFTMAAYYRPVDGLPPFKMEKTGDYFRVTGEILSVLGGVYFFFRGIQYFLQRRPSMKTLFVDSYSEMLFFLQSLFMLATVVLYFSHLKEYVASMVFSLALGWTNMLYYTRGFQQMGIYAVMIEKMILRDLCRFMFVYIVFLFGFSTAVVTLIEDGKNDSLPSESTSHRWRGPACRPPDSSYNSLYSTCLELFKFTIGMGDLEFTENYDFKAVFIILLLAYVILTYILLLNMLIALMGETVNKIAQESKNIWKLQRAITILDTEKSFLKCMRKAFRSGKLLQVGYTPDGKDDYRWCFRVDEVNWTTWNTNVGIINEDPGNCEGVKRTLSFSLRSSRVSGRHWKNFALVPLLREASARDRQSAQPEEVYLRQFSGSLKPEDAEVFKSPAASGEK

Compound	Ki [nM]
Cl.Cl.Cl.Cl.Cl.Cl.N.N.N.N.N.N.N.N.N.N.N.N.N.N.[O-2].[O-2].[Ru+3].[Ru+3].[Ru+4] [ruthenium red]	≥ 140000

Biological target: T1, human capsaicin receptor (Homo sapiens, UniProt Q8NER1)
T1 construct: expressed in transfected cells
Assay: Calcium mobilization assay, determination of antagonist activity (Example 6)
Assay type: cell-based
Conditions: cells expressing human capsaicin receptor, capsaicin-induced fluorescence response; read-out: IC50
Experimental: A cDNA encoding full length human capsaicin receptor (SEQ ID NO:1, 2 or 3 of U.S. Pat. No. 6,482,611) is subcloned in the plasmid pBK-CMV (Stratagene, La Jolla, Calif.) for recombinant expression in mammalian cells.
Human embryonic kidney (HEK293) cells are transfected with the pBK-CMV expression construct encoding the full length human capsaicin receptor using standard methods. The transfected cells are selected for two weeks in media containing G418 (400 μg/ml) to obtain a pool of stably transfected cells. Independent clones are isolated from this pool by limiting dilution to obtain clonal stable cell lines for use in subsequent experiments.
Cells transfected with expression plasmids (as described in Example 4) and thereby expressing human capsaicin receptor are seeded and grown to 70-90% confluency in FALCON black-walled, clear-bottomed 96-well plates (#3904, BECTON-DICKINSON, Franklin Lakes, N.J.). The culture medium is emptied from the 96 well plates and FLUO-3 AM calcium sensitive dye (Molecular Probes, Eugene, Oreg.) is added to each well (dye solution: 1 mg FLUO-3 AM, 440 μL DMSO and 440 μl 20% pluronic acid in DMSO, diluted 1:250 in Krebs-Ringer HEPES (KRH) buffer (25 mM HEPES, 5 mM KCl, 0.96 mM NaH2PO4, 1 mM MgSO4, 2 mM CaCl2, 5 mM glucose, 1 mM probenecid, pH 7.4), 50 μl diluted solution per well). Plates are covered with aluminum foil and incubated at 37° C. for 1-2 hours in an environment containing 5% CO2. After the incubation, the dye is emptied from the plates, and the cells are washed once with KRH buffer, and resuspended in KRH buffer.
To measure the ability of a test compound to agonize or antagonize a calcium mobilization response in cells expressing capsaicin receptors to capsaicin or other vanilloid agonist, the EC50 of the agonist capsaicin is first determined. An additional 20 μl of KRH buffer and 1 μl DMSO is added to each well of cells, prepared as described above. 100 μl capsaicin in KRH buffer is automatically transferred by the FLIPR instrument to each well. Capsaicin-induced calcium mobilization is monitored using either FLUOROSKAN ASCENT (Labsystems; Franklin, Mass.) or FLIPR (fluorometric imaging plate reader system; Molecular Devices, Sunnyvale, Calif.) instruments. Data obtained between 30 and 60 seconds after agonist application are used to generate an 8-point concentration response curve, with final capsaicin concentrations of 1 nM to 3 μM. KALEIDAGRAPH software (Synergy Software, Reading, Pa.) is used to fit the data to the equation: y=a*(1/(1+(b/x)^c)) to determine the 50% excitatory concentration (EC50) for the response. In this equation, y is the maximum fluorescence signal, x is the concentration of the agonist or antagonist (in this case, capsaicin), a is the Emax, b corresponds to the EC50 value and c is the Hill coefficient. Determination of Agonist Activity
Test compounds are dissolved in DMSO, diluted in 20 μl KRH buffer so that the final concentration of test compounds in the assay well is between 1 μM and 5 μM, and added to cells prepared as described above. The 96 well plates containing prepared cells and test compounds are incubated in the dark, at room temperature for 0.5 to 6 hours. It is important that the incubation not continue beyond 6 hours. Just prior to determining the fluorescence response, 100 μl capsaicin in KRH buffer at twice the EC50 concentration determined as described above is automatically added by the FLIPR instrument to each well of the 96 well plate for a final sample volume of 200 μl and a final capsaicin concentration equal to the EC50. The final concentration of test compounds in the assay wells is between 1 μM and 5 μM. […] The concentration of antagonist required to provide a 50% decrease, relative to the response observed in the presence of capsaicin and without antagonist, is the IC50 for the antagonist, and is preferably below 1 micromolar, 100 nanomolar, 10 nanomolar or 1 nanomolar.

T1 sequence (Q8NER1 whole entry): as above

Compound	IC50 [nM]
O=c1c2ncsc2nc(Oc2cccc(C(F)(F)F)c2)n1-c1ccc(F)cc1 [Compound 46, 6-(4-fluorophenyl)-5-(3-(trifluoromethyl)phenoxy)thiazolo[5,4-d]pyrimidin-7(6H)-one]	≤ 100
Cn1cnc2c(=O)n(-c3ccc(F)cc3)c(Oc3cccc(C(F)(F)F)c3)nc21 [Compound 48, 1-(4-fluorophenyl)-9-methyl-2-[3-(trifluoromethyl)phenoxy]-1,9-dihydro-6H-purin-6-one]	≤ 100
Cn1cnc2c(=O)n(-c3ccc(F)cc3)c(Oc3cc(F)cc(C(F)(F)F)c3)nc21 [Compound 49, 1-(4-fluorophenyl)-2-[3-fluoro-5-(trifluoromethyl)phenoxy]-9-methyl-1,9-dihydro-6H-purin-6-one]	≤ 100
Cc1csc2c(=O)n(-c3ccc(Cl)cc3)c(Oc3ccc(F)c(F)c3F)nc12 [Compound 50, 3-(4-chlorophenyl)-7-methyl-2-(2,3,4-trifluorophenoxy)thieno[3,2-d]pyrimidin-4(3H)-one]	≤ 100
Cc1csc2c(=O)n(-c3ccc(Cl)cc3)c(Oc3ccc(Cl)cc3F)nc12 [Compound 51, 2-(4-chloro-2-fluorophenoxy)-3-(4-chlorophenyl)-7-methylthieno[3,2-d]pyrimidin-4(3H)-one]	≤ 100
Cc1csc2c(=O)n(-c3ccc(Cl)cc3)c(Oc3ccc(F)cc3F)nc12 [Compound 52, 3-(4-chlorophenyl)-2-(2,4-difluorophenoxy)-7-methylthieno[3,2-d]pyrimidin-4(3H)-one]	≤ 100
Cc1csc2c(=O)n(-c3ccc(F)cc3)c(Oc3ccc(F)c(F)c3F)nc12 [Compound 53, 3-(4-fluorophenyl)-7-methyl-2-(2,3,4-trifluorophenoxy)thieno[3,2-d]pyrimidin-4(3H)-one]	≤ 100
Cc1csc2c(=O)n(-c3ccc(F)cc3)c(Oc3ccc(Cl)cc3F)nc12 [Compound 54, 2-(4-chloro-2-fluorophenoxy)-3-(4-fluorophenyl)-7-methylthieno[3,2-d]pyrimidin-4(3H)-one]	≤ 100
Cc1csc2c(=O)n(-c3ccc(F)cc3)c(Oc3c(F)ccc(F)c3F)nc12 [Compound 55, 3-(4-fluorophenyl)-7-methyl-2-(2,3,6-trifluorophenoxy)thieno[3,2-d]pyrimidin-4(3H)-one]	≤ 100
Cc1cccc(Oc2nc3c(ncn3C)c(=O)n2-c2ccc(F)cc2)c1C [Compound 63, 2-(2,3-dimethylphenoxy)-1-(4-fluorophenyl)-9-methyl-1,9-dihydro-6H-purin-6-one]	≤ 100
